Test [1] concerns human pancreatic BxPC3 tumors. Nature of the test: Orthotopic BxPC3-luc pancreatic tumor model, tumor progression and metastases (TMPN score, bioluminescence). In kind it is in vivo, nude mice. More on the design: key to Nodes score / Tumor score / Organ Metastases, Liver score / Organ Metastases, Lung score / Peritoneal Metastases, Diaphragm score / Peritoneal Metastases, Kidney score / Peritoneal Metastases, Adrenals score / Peritoneal Metastases, Intestine score / Peritoneal Metastases, Peritoneum score: TMPN category scores per Table 2 (modified Hennig 2005); key to Total Score: product of T, M, P and N scores per animal. As to conditions: individual animal, end of experiment. Here is the method: The antitumorigenic and antimetastatic capability of the monoclonal antibodies 3F8 and 2H8 against S100P was assessed in an orthotopic tumor model using the human adenopancreatic BxPC3 tumor cell line stably expressing a lentiviral luciferase reporter gene.
BxPC3-luc cell line in exponential growth were harvested with trypsin-EDTA (0.05%/0.02%) (Invitrogen), washed, and examined for viability by trypan blue dye exclusion. Viability was greater than 95%. For primary tumor growth, cells (5×105 in 0.1 mL DMEM high glucose) were injected into the pancreas of 5 nude mice.
Four weeks after cell injection, when tumors became established (300-350 mm3), two animals were killed, tumors were obtained, sliced in 5 mm3 pieces approximately and implanted in 15 new mice. Mice were divided into 3 groups of five animals each one.
Tumor growth and metastasis were followed by bioluminescent imaging, palpation of animals and the examination of endpoint criteria of treated animals (occurrence of ascitic fluid and body weight loss).
Mice were treated either with cromolyn (reference compound that is known to bind to S100P and block its extracellular activity, Arumugam T. et al. 2006. J. Natl. Cancer Inst. 98(24):1806-18), daily (5 mg/Kg body weight by ip injection) or with our antibodies against S100P (3F8 and 2H8), three times per week at 25 mg/Kg by ip injection, starting the treatment 24 hours after tumor implantation. At the end of the experiment (treatment of 30 days) animals were killed, pancreatic tumors were surgically removed, weighted and an staging and scoring system of peritoneal tumors, pancreatic tumors, lymph node metastases, organ metastases, and ascites was developed and recorded according to our TMPN scoring system (Table 2) modified from Hennig R. et al. 2005. Neoplasia, 7(4):417-425 to evaluate tumor progression. Scores from each category were multiplied with each other because patterns in medicine follow multiplicative, rather than additive, rules.
Scores for the primary tumor (T), organ metastases (M), peritoneal metastases (P), and lymph node metastases (N) were multiplied to calculate the total tumor score for each animal. Score P4 value is the sum of the corresponding P0, P1, P2, P3 (P0/1/2/3) plus an additional value of 3 for metastasis presence in the diaphragm, 3 for kidney, 3 for intestine and 3 for adrenal glands.
Bioluminescence imaging was conducted using a cryogenically cooled IVIS 100 imaging system coupled to a data acquisition computer running Living Image Software (Xenogen Corp). Before imaging, mice were placed in an acrylic chamber anesthetized with 2.5% isofluorane-air mixture, and injected intraperitoneally with 15 mg/mL of luciferin potassium salt in PBS at a dose of 150 mg/Kg body weight. At the end of experiment, after the primary tumors were removed, cancer cell dissemination and metastasis were visualized using IVIS imaging, and metastatic colonies were counted and measured (photons/second).
Comparisons between groups were made using the Kruskall-Wallis ANOVA on ranks as a nonparametric test. Differences for which P value was less than 0.05 were considered statistically significant.

The test system of test [2] is HT1080 human fibrosarcoma cell line. Put plainly: HT1080 cell survival by MTT method. A general note: Formazan colour is commonly taken as a measure of viable cells.
Method: Briefly, HT1080 cells (1×10^4 cells/well) were plated onto 96-well cell culture plates in 50 μl of DMEM medium. Twenty-for hours later, 50 μl of medium with doxorubicin (240 nM or 1 μM) alone or in combination with either S100P or S100P combined with the antibodies (see FIG. 6) were added to each well and were cultured for 72 hours. Then 10 μl of a MTT solution (5 mg/ml PBS) was added to each well and after 4 hours cells were lysed, formazan product was solubilised with 100 μl of extraction buffer (15% SDS in 50% N,N-dimethylformamide pH 4.7) and colorimetric result was measured at 570 nm using a multi-well scanning spectrophotometer 5 hours after solubilization.
For test [3], the system named is BxPC3 pancreatic adenocarcinoma tumor cells. Nature of the test: Proliferation of BxPC3 tumor cells induced by S100P. In kind it is cell-based, human. As to conditions: S100P 100 nM, 48 hours. As for the experimental part:
The proliferation studies on the BxPC3 line were analyzed using the Cell Proliferation ELISA Biotrak™ System kit (GE Healthcare) following the manufacturer's instructions with some modifications. Three thousand cells were seeded in 50 μl of RPMI 1640 culture medium supplemented with 3% FCS in each well. The recombinant S100P protein (100 nM) alone or in combination with the antibodies was added to the cells in the same seeding medium to test the proliferative or inhibitory capacity thereof, respectively. To test the inhibitory effect of the 5D7, 4B12, 3E3, 7F1, 9F3, 6F1, 1A5, 3F8 and 2H8 monoclonal antibodies, a concentration of 500 nM of each antibody was incubated for 2 hours at 37° C. with the recombinant S100P protein before being added to the culture. After 48 hours at 37° C., the proliferation was determined. The two-tailed Mann-Whitney nonparametric test was used to compare the groups. A p value <0.05 was taken for the values to be statistically significant.

“And” between values parts separate entries of the source, which are not always exact repeats. Equal values may be shown once.

`O=C(O)c1cc(=O)c2c(OCC(O)COc3cccc4oc(C(=O)O)cc(=O)c34)cccc2o1` [Cromolyn, cromolyn]: the “Total Score” value in test [1] (T x M x P x N scores multiplied) is 2600 and 1000 (2×) and 1300 and 1750 (2×). In addition, the Tumor score in test [1] (TMPN score (Table 2), 30 days treatment, antibodies 25 mg/Kg ip three times per week, cromolyn 5 mg/Kg ip daily) was 4 (4×) and 5 (2×). In test [1] (TMPN score), the Nodes score is on record as 5; the “Organ Metastases, Liver score” value amounted to 5; the “Organ Metastases, Lung score” value is 5 and 0 (5×); the “Peritoneal Metastases, Adrenals score” value was 3 and 0 (5×). Further, in test [1] (TMPN score), the “Peritoneal Metastases, Diaphragm score” value was 0 and 3 (5×); the “Peritoneal Metastases, Intestine score” value is reported as 3; the “Peritoneal Metastases, Kidney score” value is 3 (4×) and 0 (2×); the “Peritoneal Metastases, Peritoneum score” value is 4 (4×) and 5 (2×).

The IC50 is the concentration at which inhibition is half-maximal. As usually defined, the EC50 is the concentration giving half of the maximal effect. In turn, `COc1cccc2c1C(=O)c1c(O)c3c(c(O)c1C2=O)C[C@@](O)(C(=O)CO)C[C@@H]3O[C@H]1C[C@H](N)[C@H](O)[C@H](C)O1` [Doxorubicin, doxorubicin] came in with an IC50 in test [2] (Homo sapiens, HT-1080, 72 h) of 240 nM. Moreover, in test [2] (Homo sapiens, HT-1080, read-out: Toxicity EC50), the EC50 turned out to be 240 nM.

B1: S100P: human recombinant S100P protein (SEQ ID NO: 2) expressed in E. coli, used as stimulus (protein)
chain: GSHMTELETAMGMIIDVFSRYSGSEGSTQTLTKGELKVLMEKELPGFLQSGKDKDAVDKLLKDLDANGDAQVDFSEFIVFVAAITSACHKYFEKAGLK
modifications: Human
B1: in test [3], the “proliferation increase compared to cells not treated with S100P” value was about 80%. In addition, in test [2] (S100P 500 nM, doxorubicin 240 nM, 72 h), the “increase of growing respect to the non treated HT1080 cells” value was “approximately 40%”.

These data come from US9868784B2, “Antibodies against the S100P protein for the treatment and diagnosis of cancer” (LYKERA BIOMED SA, priority 2011, dated 2018).
